From PubChem BioAssay (NCI)
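Protocol summary: plate cells (96-well), add compound at 5 concentrations, incubate 48 h, interpolate endpoints linearly. The concentration for full growth arrest is given as TGI.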

Assays:
Assay in all cases: growth of human tumour cells (NCI), 48 h
[1] = tested on: BT-549 breast
[2] = tested on: NCI/ADR-RES ovarian
[3] = tested on: A549 NSCLC
[4] = tested on: IGROV1 ovarian
[5] = tested on: HL-60(TB) leukemia
[6] = tested on: M14 melanoma
[7] = tested on: OVCAR-8 ovarian
[8] = tested on: SK-MEL-2 melanoma
[9] = tested on: KM12 colon
[10] = tested on: NCI-H460 lung
[11] = tested on: OVCAR-5 ovarian
[12] = tested on: SNB-75 CNS
[13] = tested on: SF-268 CNS
[14] = tested on: NCI-H23 lung
[15] = tested on: SK-OV-3 ovarian
[16] = tested on: MOLT-4 leukemia
[17] = tested on: SN12C renal
[18] = tested on: SW-620 colon
[19] = tested on: DU-145 prostate
[20] = tested on: LOX IMVI melanoma
[21] = tested on: SR leukemia
[22] = tested on: K-562 leukemia
[23] = tested on: HOP-92 NSCLC
[24] = tested on: RXF 393 renal
[25] = tested on: OVCAR-4 ovarian
[26] = tested on: MDA-MB-435
[27] = tested on: EKVX NSCLC
[28] = tested on: MCF7 breast
[29] = tested on: UACC-257 melanoma
[30] = tested on: NCI-H226 lung
[31] = tested on: HCC-2998 colon
[32] = tested on: SF-539 CNS
[33] = tested on: SNB-19 CNS
[34] = tested on: TK-10 renal
[35] = tested on: PC-3 prostate
[36] = tested on: CCRF-CEM leukemia
[37] = tested on: OVCAR-3 ovarian
[38] = tested on: HS 578T breast
[39] = tested on: 786-0 renal
[40] = tested on: MDA-N
[41] = tested on: UO-31 renal
[42] = tested on: HT29 colon
[43] = tested on: UACC-62 melanoma
[44] = tested on: HCT-15 colon
[45] = tested on: U251 CNS
[46] = tested on: SK-MEL-5 melanoma
[47] = tested on: HOP-62 NSCLC
[48] = tested on: COLO 205 colon
[49] = tested on: T-47D breast
[50] = tested on: SK-MEL-28 melanoma
[51] = tested on: NCI-H522 lung
[52] = tested on: CAKI-1 renal
[53] = tested on: ACHN renal
[54] = tested on: MDA-MB-231 breast
[55] = tested on: HCT-116 colon
[56] = tested on: A498 renal
[57] = tested on: SF-295 CNS
[58] = tested on: RPMI-8226 leukemia
[59] = tested on: MALME-3M melanoma

CCCCN(C)C(=O)C1=C(C)NC(C)=C(C(=O)N(C)CCCC)C1
TGI [1]: > 100 µM | TGI [2]: > 100 µM | TGI [3]: > 100 µM | TGI [4]: > 100 µM | TGI [5]: > 100 µM | TGI [6]: > 100 µM | TGI [7]: > 100 µM | TGI [8]: > 100 µM | TGI [9]: > 100 µM | TGI [10]: > 100 µM | TGI [11]: > 100 µM | TGI [12]: > 100 µM | TGI [13]: > 100 µM | TGI [14]: > 100 µM | TGI [15]: > 100 µM | TGI [16]: > 100 µM | TGI [17]: > 100 µM | TGI [18]: > 100 µM | TGI [19]: > 100 µM | TGI [20]: > 100 µM | TGI [21]: > 100 µM | TGI [22]: > 100 µM | TGI [23]: > 100 µM | TGI [24]: > 100 µM | TGI [25]: > 100 µM | TGI [26]: > 100 µM | TGI [27]: > 100 µM | TGI [28]: > 100 µM | TGI [29]: > 100 µM | TGI [30]: > 100 µM | TGI [31]: > 100 µM | TGI [32]: > 100 µM | TGI [33]: > 100 µM | TGI [34]: > 100 µM | TGI [35]: > 100 µM | TGI [36]: > 100 µM | TGI [37]: > 100 µM | TGI [38]: > 100 µM | TGI [39]: > 100 µM | TGI [40]: > 100 µM | TGI [41]: > 100 µM | TGI [42]: > 100 µM | TGI [43]: > 100 µM | TGI [44]: > 100 µM | TGI [45]: > 100 µM | TGI [46]: > 100 µM | TGI [47]: > 100 µM | TGI [48]: > 100 µM | TGI [49]: > 100 µM | TGI [50]: > 100 µM | TGI [51]: > 100 µM | TGI [52]: > 100 µM | TGI [53]: > 100 µM | TGI [54]: > 100 µM | TGI [55]: > 100 µM | TGI [56]: > 100 µM | TGI [57]: > 100 µM | TGI [58]: > 100 µM

CCOC(=O)/C=C\C(C#N)(C#N)N=Cc1ccsc1
TGI [1]: 12.1 µM | TGI [2]: 15.3 µM | TGI [3]: 38.2 µM | TGI [4]: 28.2 µM | TGI [5]: 5.14 µM | TGI [6]: 9.5 µM | TGI [7]: 14.6 µM | TGI [8]: 33.1 µM | TGI [9]: 36.5 µM | TGI [10]: 43.7 µM | TGI [11]: 33.1 µM | TGI [12]: 27.8 µM | TGI [13]: 22 µM | TGI [14]: 29.9 µM | TGI [15]: 35.6 µM | TGI [16]: 5.61 µM | TGI [17]: 36.3 µM | TGI [18]: 4.11 µM | TGI [19]: 30.7 µM | TGI [20]: 15.1 µM | TGI [21]: 18.1 µM | TGI [22]: 14.3 µM | TGI [23]: 4.52 µM | TGI [24]: 5.46 µM | TGI [25]: 19.2 µM | TGI [26]: 6.63 µM | TGI [27]: 30.6 µM | TGI [28]: 8 µM | TGI [29]: 20.9 µM | TGI [30]: 34.2 µM | TGI [31]: 32.3 µM | TGI [32]: 12.9 µM | TGI [33]: 55.2 µM | TGI [34]: 4.63 µM | TGI [35]: 22.7 µM | TGI [36]: 1.02 µM | TGI [37]: 6.42 µM | TGI [38]: 48.4 µM | TGI [39]: 5.01 µM | TGI [40]: 24.5 µM | TGI [41]: 5.71 µM | TGI [59]: 5.35 µM | TGI [42]: 28.1 µM | TGI [43]: 32 µM | TGI [44]: 10.1 µM | TGI [45]: 33.1 µM | TGI [46]: 35.4 µM | TGI [47]: 36.9 µM | TGI [48]: 3.4 µM | TGI [49]: 4.49 µM | TGI [50]: 6.89 µM | TGI [51]: 2.83 µM | TGI [52]: 5.33 µM | TGI [53]: 9.26 µM | TGI [54]: 30.9 µM | TGI [55]: 4.72 µM | TGI [56]: 33.5 µM | TGI [57]: 46.6 µM | TGI [58]: 4.25 µM
